Measurements: article PMC9923724, “Half sandwich-type osmium, ruthenium, iridium and rhodium complexes with bidentate glycosyl heterocyclic ligands induce cytostasis in platinum-resistant ovarian cancer cells and bacteriostasis in Gram-positive multiresistant bacteria” (Frontiers in Chemistry, 2023)

What was measured:
[1] = test system: cisplatin resistant A2780 cells; test: SRB assay (48 h) on cisplatin-resistant A2780 cells; assay type: cell-based; settings: for IC50 / cisplatin resistant A2780 SRB Max. (maximal inhibition): cisplatin resistant A2780 cells, SRB, 48 h
Procedure: 6 × 10^3 cisplatin-resistant A2780 cells were plated to 96 well plates. Cells were treated with the compounds in the concentrations indicated for either 4 h for an MTT assay or for 48 h for an SRB assay. Data is represented as average ± SD, from three biological replicates; individual assays were performed in duplicates. Values were normalized for vehicle treated cells, absorbance for vehicle treated cells equals to 1. Each compound was assessed individually. Normality was assessed using the Shapiro-Wilk test. […] Statistical significance was assessed using One-way ANOVA test comparing all points to the smallest concentration. For better visibility the p values are presented in an excel sheet at https://figshare.com/s/2c942a812caea8869a67. Non-linear regression was performed on the results of the SRB assay datasets.
Cisplatin resistant cells underwent selection (1 µM cisplatin) once a week for 3 days before plating for any assay.
The assay was performed similar to ([Kovács et al., 2019]). Cells were seeded in 96 well plates the day before the assay. Cells were treated with the compounds for 48 h. Cells were fixed with 10% trichloroacetic acid (TCA). Fixed cells were washed in distilled water 3 times followed by staining with SRB (0.4 m/V% dissolved in 1% acetic acid) for 10 min. Stained cells were washed in 1% acetic acid 5 times; acetic acid was removed and cells were left to dry. Protein-bound SRB was released by adding 100 µl 10 mM Tris base. Plates were measured in a plate photometer (Thermo Scientific Multiscan GO spectrophotometer, Waltham, MA, United States) at 540 nm. On each plate wells were designed to contain vehicle-treated cells. In calculations the readings for these wells was considered as 1 and all readings were expressed relative to these values.
Statistical analysis was performed using 8.0.1 version of Graphpad Prism. Values were tested for normal distribution using the D’Agostino and Pearson normality test. When necessary, values were log normalized or were normalized using the Box-Cox normalization method ([Box and Cox, 1964]) as indicated in the figure captions.

[2] = test system: methicillin-resistant Staphylococcus aureus (MRSA) clinical isolates; test: Broth microdilution MIC, clinical MRSA isolates; assay type: cell-based; settings: for MIC against clinical MRSA isolates (as a group): 6 clinical MRSA isolates; for MIC, MRSA 20 426: clinical isolate 20 426, blood, 2020; for MIC, MRSA 24 035: clinical isolate 24 035, wound; for MIC, MRSA 24 035 / MIC, MRSA 24 268 / MIC, MRSA 24 272 / MIC, MRSA 24 328 / MIC, MRSA 24 408: 2018; for MIC, MRSA 24 268: clinical isolate 24 268, throat; for MIC, MRSA 24 272: clinical isolate 24 272, throat; for MIC, MRSA 24 328: clinical isolate 24 328, throat; for MIC, MRSA 24 408: clinical isolate 24 408, bronchial
Procedure: The MIC values of the complexes were determined against the reference strains of S. aureus (ATCC29213) and E. faecalis. (ATCC29212) and against clinical VRE and MRSA isolates by microdilution assays (repeated at least twice in duplicates) as described in Materials and Methods. The numbers indicate how many isolates were susceptible to the compound out of those tested; i.e., 1/6 stands for 1 isolate was susceptible out of 6 tested. […] Cells were harvested and lysed. Cellular proteins was separated on a 10% SDS-PAGE gel and were blotted. Blots were probed with 4HNE antibody (top blot), the lower blot was stained with amido black. Arrows point at band of interest. Experiments were repeated three times and a representative blot is shown. On the blots brightness and contrast were adjusted. […] Each was matched to a substance and strain by its position over the x-axis categories. / Ir-7: ND and 0/3 (left plot) and ND and 0/6 (right plot) were matched to E. faecalis/VRE and S. aureus/MRSA by position only.
We used a set of clinical isloates of S. aureus and E. faecium that were collected at the Medical Center of the University of Debrecen (Hungary) between 01. 01. 2018.—31. 12. 2020. The clinical isolates were identified using a Microflex MALDI-TOF mass spectrometer (Bruker, Billerica, MA, United States). Antibiotic susceptibility of the isolates was tested following the European Committee on Antimicrobial Susceptibility Testing ([EUCAST, 2021]) guidelines valid at the time of collection.
Microdilution experiments were performed according to the standards of EUCAST ([EUCAST, 2021]). […] The inoculated plates were incubated for 24 h at 37°C then were assessed visually. […] All experiments were performed at least twice in duplicates.

Row | SMILES | IC50 [1] | cisplatin resistant A2780 SRB Max. (maximal inhibition) [1] | MIC against clinical MRSA isolates (as a group) [2] | MIC, MRSA 20 426 [2] | MIC, MRSA 24 035 [2] | MIC, MRSA 24 268 [2] | MIC, MRSA 24 272 [2] | MIC, MRSA 24 328 [2] | MIC, MRSA 24 408 [2] | fold change of IC50, cisplatin resistant vs cisplatin sensitive A2780 ([1]; SRB assays, resistant / sensitive A2780) | MRSA isolates susceptible out of those tested ([2]; 6 isolates tested, susceptible = MIC up to 40 µM)
1 | Cc1c(C)c(C)[c-](C)c1C.F[P-](F)(F)(F)(F)F.O=C(OCC1OC(n2cc(-c3ccc4ccccc4n3)nn2)C(OC(=O)c2ccccc2)C(OC(=O)c2ccccc2)C1OC(=O)c1ccccc1)c1ccccc1.[Cl][Ir+2] (mixture of isomers) [Ir-7] | 1540 nM | >90% | no activity | 40< µM | 40< µM | 40< µM | 40< µM | 40< µM | 40< µM |  | 
2 | Cc1ccc(C(C)C)cc1.F[P-](F)(F)(F)(F)F.O=C(OCC1OC(n2cc(-c3ccc4ccccc4n3)nn2)C(OC(=O)c2ccccc2)C(OC(=O)c2ccccc2)C1OC(=O)c1ccccc1)c1ccccc1.[Cl][Os+] (mixture of isomers) [Os-7] | 476 nM | >90% | 5 µM | 40< µM | 40< µM | 40< µM | 5 µM | 40< µM | 40< µM | technically unchanged | 1 out of the 6
3 | Cc1ccc(C(C)C)cc1.F[P-](F)(F)(F)(F)F.O=C(OCC1OC(n2cc(-c3ccc4ccccc4n3)nn2)C(OC(=O)c2ccccc2)C(OC(=O)c2ccccc2)C1OC(=O)c1ccccc1)c1ccccc1.[Cl][Ru+] (mixture of isomers) [Ru-7] | 1180 nM | >90% | 5 to 40 µM | 10 µM | 40 µM | 20 µM | 5 µM | 10 µM | 10 µM |  | 
